In publication PMC10590383, “Repurposing conformational changes in ANL superfamily enzymes to rapidly generate biosensors for organic and amino acids” (Nature Communications, 2023):

Key:
[1] = Substrate (ligand) specificity of […]s; type: biochemical; conditions: for fluorescence response of GECFINDER to each substrate, AVE of 3 repeats: Supplementary Fig. 3 c, substrate specificity
Summary of the method: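 Purified biosensor protein (0.75 μM) with ligand, 1 mM ATP and 2.5 mM MgCl2 in 100 mM Tris-HCl, pH 7.5, at room temperature. Fluorescence (Ex 460 or 480/Em 510 nm) read each minute for 15 min. Dose-response fitted by 5-parameter logistic; specificity tested with 20 amino acids at 100 μM as normalized ΔF/F0.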

[2] = Fluorescence spectra / excitation wavelength scan of […]s; type: physicochemical; conditions: Wavelength 300 nm
Protocol: Fig. 3 Dose–response curves and fluorescence spectrums of […]s. a, c, e, g, i, k Dose–response curve of purified […]s with increasing concentrations of ligand in 100 mM Tris-HCl buffer (pH=7.5). […] All data shown are mean ± S.D. (n = 3 biologically independent samples). Source data are provided as a Source data file.
The study conducted dose–response curve, substrate specificity, and fluorescent spectrum analyses in 100-mM Tris buffer (pH = 7.5), while pH stability experiments were performed in 100-mM Tris buffer at three different pH values (6.5, 7.5, and 8.5) at room temperature. […] protein at a concentration of 0.75 μM, various small molecule concentrations, 1 mM ATP, and 2.5 mM MgCl2 were used in the experiments. Fluorescent signals were detected using a Microplate Reader (Synergy H4, Bio Tek) at an excitation/emission wavelength of 460 nm/510 nm or 480 nm/510 nm. The dose-response curve was determined immediately after the addition of the analyte. The total duration of the measurement was 15 min, with readings taken at one-minute intervals. The dose-response curve was plotted using the fluorescence values obtained after achieving stability in the fluorescence signal. The dose-response curves were fitted using the logistic model LOGISTIC5 available in Origin 2021, which could provide a more adequate fit to asymmetric dose-response data[62],[63]. Excitation spectra were scanned from 300 to 540 nm with a step size of 5 nm, and the emission wavelength was set to 560 nm. Emission spectra were scanned from 470 to 700 nm with a step size of 5 nm, and the excitation wavelength was set to 450 nm. The thermal stability of […] was analyzed using the UNcle multifunctional protein stability analysis system. Measurements were performed in 20 mM MOPS buffer with 2 mM DTT at a sample concentration of 1 mg/mL. Absolute fluorescence quantum yields were measured using an absolute photoluminescence quantum yield spectrometer (FS5, Edinburgh).

Row | Wavelength scan, AVE of Repeat 1-3 (Fig. 3 l) ([2]; 0.005 μM His) | Wavelength scan, AVE of Repeat 1-3 (Fig. 3 l) ([2]; 10 μM His) | Wavelength scan, AVE of Repeat 1-3 (Fig. 3 l) ([2]; 1000 μM His) | SMILES | fluorescence response of GECFINDER to each substrate, AVE of 3 repeats [1] | Wavelength scan, AVE of Repeat 1-3 (Fig. 3 j) ([2]; 0.05 μM Ile) | Wavelength scan, AVE of Repeat 1-3 (Fig. 3 j) ([2]; 100 μM Ile) | Wavelength scan, AVE of Repeat 1-3 (Fig. 3 j) ([2]; 10000 μM Ile) | AVE of Repeat 1-3, sensor signal with ligand (Supplementary Fig. 7 c) ([1]; 0.5 mM ligand, Control AVE 12117.3) | Wavelength scan, AVE of Repeat 1-3 (Fig. 3 d) ([2]; 0.001 μM Phe) | Wavelength scan, AVE of Repeat 1-3 (Fig. 3 d) ([2]; 1 μM Phe)
1 |  |  |  | CC[C@H](C)[C@H](N)C(=O)O [Ile] | 0.009799 | 3399.67 | 3371.67 | 3289.33 |  |  | 
2 | 201.667 | 165.667 | 210 | N[C@@H](Cc1cnc[nH]1)C(=O)O [His] | 0.0452 |  |  |  |  |  | 
3 |  |  |  | N[C@@H](Cc1ccccc1)C(=O)O [Phe] | 0.3443 |  |  |  | 23386.3 | 174.667 | 212
